Key:
[1] = system: mice; assay: Footshock (fighting episodes of pairs of mice); assay type: in vivo; settings: Mus musculus; pairs of mice pretreated 1 hour prior to second shocking; 3 out of 3 pairs blocked from fighting; read-out: Footshock, 100% blocking dose
Procedure: A pair of mice is confined under a one liter beaker placed on a grid which presents shock to the feet. At least 5 fighting episodes are elicited in a two-minute period. Pairs of mice are marked and pretreated 1 hour prior to a second shocking. Logarithmic dose intervals are utilized up to a maximum of 100 mg/kg. At the 100% blocking dose, 3 out of 3 pairs must be blocked from fighting.

[2] = system: Cats; assay: Unanesthetized Cat (minimum symptoms, usually ataxia); assay type: in vivo; settings: Felis catus, oral, up to three cats/dose
Procedure: Cats are treated orally and observed for minimum symptoms-usually ataxia. One cat is used at a dose of 50 mg/kg. If activity is present, up to three cats/dose are used. Results are given as minimum effective dose.

[3] = system: male mice; assay: Inclined Screen (paralyzing effects); assay type: in vivo; settings: Mus musculus; groups of 6 male mice; at least 4 hours observation; maximum dose 500 mg/kg; read-out: Inclined Screen, PD50
Procedure: Groups of 6 male mice are given the test drug (maximum dose of 500 mg/kg) and then are left on the inclined screen at least 4 hours for observation of paralyzing effects severe enough to cause them to slide off the screen. If activity is observed, additional doses are taken until at least two are reached at which some, but not all of the animals slide off the screen. Doses at which mice fall off the screen due to toxicity or excitation are not included in the calculation of PD50.

[4] = Toxicity (LD50); settings: in vivo, po

SMILES | ED100 [1] [mg/kg] | minimal effective dose [2] [mg/kg] | ED50 [3] [mg/kg] | LD50 [4] [mg/kg]
Clc1ccc2c(c1)C(c1ccccc1Cl)=NCc1c[nH]cc1-2 [8-Chloro-6-(2-chlorophenyl)-2H,4H-pyrrolo[3,4-d][2]benzazepine] | 1 | 0.25 | 400 | > 1000
CS(=O)(=O)O.Cc1[nH]cc2c1-c1ccc(Cl)cc1C(c1ccccc1F)=NC2 [8-Chloro-6-(2-fluorophenyl)-1-methyl-2H,4H-pyrrolo[3,4-d][2]benzazepine methanesulfonate] | 2 | 2.5 | 400 | > 1000
Clc1ccc2c(c1)C(c1ccccc1)=NCc1c[nH]cc1-2 [8-Chloro-6-phenyl-2H,4H-pyrrolo[3,4-d][2]benzazepine] | 25 | 2.5 | 400 | > 1000

— patent US4354973A, “Pyrrolo[3,4-d][2]benzazepines” (Hoffmann-La Roche Inc., priority 1981, dated 1982)
